# Data as given in patent US6825230B2, “Spiro and dispiro 1,2,4-trixolane antimalarials” (Medicines for Malaria Venture MMV, priority 2002, dated 2004).
# What was measured:
# P. berghei ANKA strain [1] = test: Onset of action and recrudescence experiment, single 100 mg/kg po; format: in vivo, Plasmodium berghei; conditions: single 100 mg/kg po (SSV) on day +3 post-infection; recrudescence = >5% parasitemia; followed up to 60 days; groups of five
# Procedure: The onset of drug action was determined after a single fixed dose of 100 mg/kg (SSV vehicle) po to groups of five animals on day +3 post-infection (day 0).
# (§1) Moro NMRI male mice (Fu Albino specific pathogen free) weighing 18±2 g were infected intravenously (i.v.) with 2×10^7 P. berghei ANKA strain-infected erythrocytes from donor mice on day 0 of the experiment. From donor mice with circa 30% parasitemia, heparinized blood was taken and diluted in physiological saline to 10^8 parasitized erythrocytes per ml. An aliquot (0.2 ml) of this suspension was injected i.v. into experimental and control groups of mice. […] Throughout the experiments, mice were kept in groups of three or five animals in Makrolon type II cages in an air-conditioned animal room at 22 to 23° C.
# [2] = tested on: ANKA strain of P. berghei; test: Single dose STI in vivo screen in infected mice; design: species or system Plasmodium berghei; conditions: for Survival (days) 10 mg/kg SSV po: single 10 mg/kg po in SSV; for Activity (%) 10 mg/kg SSV po: single 10 mg/kg po in standard suspending vehicle (SSV) on day 1 post-infection; for Survival (days) 3 mg/kg SSV po / Activity (%) 3 mg/kg SSV po: single 3 mg/kg po in SSV
# [3] = tested on: chloroquine-sensitive NF54 strain of P. falciparum; test: In vitro antimalarial semiautomated microdilution assay ([3H]-hypoxanthine incorporation), NF54 strain; format: cell-based, Plasmodium falciparum; conditions: Plasmodium falciparum; chloroquine-sensitive NF54 strain, 72 h incubation; read-out: IC50 (ng/ml) NF54
# Procedure, shortened: (§2)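 Logit regression analysis yields the fifty percent inhibitory concentration. Compounds are tested by semiautomated microdilution on intraerythrocytic parasites drawn from asynchronous stock cultures, measuring [3H]-hypoxanthine incorporation.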
# [4] = tested on: Schistosoma mansoni adult worms (49-day-old); test: Effect on adult schistosomes (49-day-old) in infected mice; format: in vivo; conditions: single 400 mg/kg per os; for % reduction of adult worms growth at day 49 after per os application of 400 mg/kg, TWR (%): 49-day-old adults, total worm reduction rate; for Adult worms day 49, per os 400 mg/kg, DEAD WORM (%): percentage of dead worm in the liver
# Procedure: Mice were infected with 100 Schistosoma mansoni cercariae on day 49 post-treatment. Each group was treated per os with OZ compounds at single doses of 200, 400, and 600 mg/kg. Untreated mice served as the control. All groups were killed 4 weeks after treatment and the liver and intestine were removed and separated. The liver and intestine were compressed and alive male and female worms could be seen and counted.
# [5] = tested on: chloroquine-resistant K1 strain of P. falciparum; test: In vitro antimalarial semiautomated microdilution assay ([3H]-hypoxanthine incorporation), K1 strain; format: cell-based, Plasmodium falciparum; conditions: Plasmodium falciparum; chloroquine-resistant K1 strain, 72 h incubation; read-out: IC50 (ng/ml) K1
# Procedure, shortened: as §2
# [6] = Pharmacokinetics in rats (IV and oral dosing); conditions: rat, in vivo
# Excerpt: (§3) Artesunate is listed as a reference compound.
# [7] = Pharmacokinetics in dogs (IV and oral dosing); conditions: in vivo, dog; for bioavailability: some values marked (V), not defined
# Excerpt: as §3
# P. berghei ANKA strain [8] = test: Prophylactic activity, single 100 mg/kg po at various times before infection; format: in vivo, Plasmodium berghei; conditions: for Prophylactic Activity (%) 72 h: po, 100 mg/kg; for Prophylactic Activity (%) 24 h: single 100 mg/kg po 24 h before infection; for Prophylactic Activity (%) 24 h / Prophylactic Activity (%) 48 h / Prophylactic Activity (%) 0 h: parasitemia reduction on day 3 post-infection; for Prophylactic Activity (%) 48 h: single 100 mg/kg po 48 h before infection; for Prophylactic Activity (%) 0 h: single 100 mg/kg po at 0 h
# Procedure: as §1
# Prophylactic activities of the compounds were compared after administering po single dose of 100 mg/kg to different groups of five animals at various times before infection. All groups including an untreated control group, were then infected at the same time. Parasitemia was determined for each animal on day 3 post-infection, and percent of reduction of the level of parasitemia compared to levels for animals given no drug is determined.
# P. berghei ANKA strain [9] = test: Divided 3x3 mg/kg and 3x1 mg/kg po doses in infected mice; format: in vivo, Plasmodium berghei; conditions: for Cures: 3 mg/kg, 720 h
# Procedure, shortened: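 Male NMRI mice were infected i.v. with 2×10^7 P. berghei-parasitized erythrocytes on day 0, then dosed orally in SSV vehicle on days 1, 2 and 3 post-infection.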
# P. berghei ANKA strain [10] = test: Divided 3x10 mg/kg vs single 1x30 mg/kg po dose in infected mice; format: in vivo, Plasmodium berghei; conditions: for Survival (days) 3 × 10 mg/kg p.o. SSV / Activity (%) 3 × 10 mg/kg p.o. SSV: 10 mg/kg po on days 1, 2, 3 post-infection
# Procedure: as §1
# They were administered per os (p.o.) in a total volume of 0.01 ml per gram of mouse. The activity of the compound was determined by a variety of methods outlined in subsequent sections. Survival time was also recorded, and survival to day 30 post-infection was considered to be a cure.
# The first experiment conducted consisted of administration of a divided 3×10 mg/kg p.o. dose administered on days 1, 2, and 3 post-infection vs. a single 1×30 mg/kg po dose administered on day 1 post-infection. On day 4 post-infection, blood smears of all animals were prepared and stained with Giemsa. […] Compounds were administered orally in the SSV vehicle.
# [11] = percent reduction in parasitemia on day 3
# [12] = 3 × 1 mg/kg p.o. SSV on days 1, 2, 3 post-infection
# [13] = 3 × 3 mg/kg p.o. SSV on days 1, 2, 3 post-infection
# [14] = 3 × 3 mg/kg p.o. SSV on days 1, 2, 3 post-infection, percent reduction of parasitemia vs control on day 4
structure (smiles),measurement,setting,value
"CCO[C@H]1O[C@@H]2O[C@@]3(C)CC[C@H]4[C@H](C)CC[C@@H]([C@H]1C)[C@@]24OO3 [Arteether, arteether, reference compound]",Time of Recrudescence,P. berghei ANKA strain [1],11.4 days
NC(=O)CNC[C@H]1CC[C@]2(CC1)OOC1(O2)C2CC3CC(C2)CC1C3 (stereo partly shown) [OZ256],Survival (days) 10 mg/kg po,"[2]; single 10 mg/kg po in 3% ethanol and 7% Tween 80, untreated 6-7 days",8.7 days
same,Activity (%) 10 mg/kg po,"[2]; single 10 mg/kg po in 3% ethanol and 7% Tween 80 on day 1 post-infection, percent reduction in parasitemia on day 3",99.70%
same,Survival (days) 10 mg/kg SSV po,[2]; untreated 6-7 days,8.7 days
same,Activity (%) 10 mg/kg SSV po,[2]; [11],99.67%
same,Survival (days) 10 mg/kg sc,"[2]; single 10 mg/kg sc in 3% ethanol and 7% Tween 80, untreated 6-7 days",9.7 days
same,Activity (%) 10 mg/kg sc,"[2]; single 10 mg/kg sc in 3% ethanol and 7% Tween 80 on day 1 post-infection, percent reduction in parasitemia on day 3",99.95%
same,IC50,[3],0.2 ng/mL
same,"% reduction of adult worms growth at day 49 after per os application of 400 mg/kg, TWR (%)",[4],10%
same,"Adult worms day 49, per os 400 mg/kg, DEAD WORM (%)",[4],19%
same,IC50,[5],0.3 ng/mL
same,half-life,"[6]; iv, 10 mg/kg",1.57 h
same,bioavailability,"[6]; po, 10 mg/kg",18.6%
same,bioavailability,"[6]; po, 25 mg/kg",51.9%
same,half-life,"[6]; po, 25 mg/kg",1.22 h
same,half-life,[7]; IV 10 mg/kg,1.42 h
same,half-life,[7]; oral 10 mg/kg,1.38 h
same,bioavailability,"[7]; oral 10 mg/kg, read-out: Dog Oral Bioavailability 10 mg/kg",42%
same,bioavailability,"[7]; oral 25 mg/kg, read-out: Dog Oral Bioavailability 25 mg/kg",38.3%
same,Prophylactic Activity (%) 72 h,P. berghei ANKA strain [8],13%
same,Prophylactic Activity (%) 24 h,P. berghei ANKA strain [8],82%
same,Prophylactic Activity (%) 48 h,P. berghei ANKA strain [8],29%
same,Prophylactic Activity (%) 0 h,P. berghei ANKA strain [8],100%
NCC(=O)NC[C@H]1CC[C@]2(CC1)OO[C@]1(O2)C2CC3CC(C2)CC1C3 [OZ271],Survival,P. berghei ANKA strain [9]; [12],8.8 days
same,Survival,P. berghei ANKA strain [9]; [13],16.2 days
same,Activity (%),P. berghei ANKA strain [9]; [14],99.99%
same,Activity (%),"P. berghei ANKA strain [9]; po, 1 mg/kg, 96 h",87%
same,Cures,P. berghei ANKA strain [9]; po,0\5
same,Survival (days) 3 mg/kg SSV po,[2],8.6 days
same,Activity (%) 3 mg/kg SSV po,[2]; [11],99.52%
same,Survival (days) 10 mg/kg SSV po,[2]; untreated 6-7 days,8.7 days
same,Activity (%) 10 mg/kg SSV po,[2]; [11],99.93%
same,IC50,[3],0.29 ng/mL
same,Survival (days) 3 × 10 mg/kg p.o. SSV,P. berghei ANKA strain [10],27.8 days
same,Activity (%) 3 × 10 mg/kg p.o. SSV,P. berghei ANKA strain [10]; parasitemia reduction on day 4,100%
same,Survival (days) 1 × 30 mg/kg p.o. SSV,P. berghei ANKA strain [10]; single 30 mg/kg po on day 1 post-infection,14 days
same,Activity (%) 1 × 30 mg/kg p.o. SSV,"P. berghei ANKA strain [10]; single 30 mg/kg po on day 1 post-infection, parasitemia reduction on day 4",99.97%
same,Cures 1 × 30 mg/kg p.o. SSV,"P. berghei ANKA strain [10]; single 30 mg/kg po, cure = survival to day 30 post-infection",0/5
same,"% reduction of adult worms growth at day 49 after per os application of 400 mg/kg, TWR (%)",[4],0%
same,"Adult worms day 49, per os 400 mg/kg, DEAD WORM (%)",[4],6%
same,IC50,[5],0.36 ng/mL
same,Prophylactic Activity (%) 72 h,P. berghei ANKA strain [8],99.89%
same,Duration of prophylactic protection,P. berghei ANKA strain [8]; single 100 mg/kg po,3 days
same,Prophylactic Activity (%) 24 h,P. berghei ANKA strain [8],100%
same,Prophylactic Activity (%) 48 h,P. berghei ANKA strain [8],99.98%
same,Prophylactic Activity (%) 0 h,P. berghei ANKA strain [8],100%
CC(C)(N)C(=O)NC[C@H]1CC[C@]2(CC1)OOC1(O2)C2CC3CC(C2)CC1C3 (stereo partly shown) [OZ281],Survival,P. berghei ANKA strain [9]; [12],13 days
same,Survival,P. berghei ANKA strain [9]; [13],12.4 days
same,Activity (%),P. berghei ANKA strain [9]; [14],100%
same,Activity (%),"P. berghei ANKA strain [9]; po, 1 mg/kg, 96 h",92%
same,Cures,P. berghei ANKA strain [9]; po,0\5
same,Activity (%) 3 mg/kg SSV po,[2]; [11],96%
same,Survival (days) 10 mg/kg SSV po,[2]; untreated 6-7 days,8.7 days
same,Activity (%) 10 mg/kg SSV po,[2]; [11],99.87%
same,IC50,[3],0.3 ng/mL
same,"% reduction of adult worms growth at day 49 after per os application of 400 mg/kg, TWR (%)",[4],12%
same,"Adult worms day 49, per os 400 mg/kg, DEAD WORM (%)",[4],15%
same,IC50,[5],0.5 ng/mL
same,Prophylactic Activity (%) 72 h,P. berghei ANKA strain [8],8%
same,Prophylactic Activity (%) 24 h,P. berghei ANKA strain [8],99.23%
same,Prophylactic Activity (%) 48 h,P. berghei ANKA strain [8],45%
same,Prophylactic Activity (%) 0 h,P. berghei ANKA strain [8],100%
Cc1ccc(S(=O)(=O)O)cc1.N[C@H]1CC[C@H](NC(=O)C[C@H]2CC[C@]3(CC2)OO[C@]2(O3)C3CC4CC(C3)CC2C4)CC1 [OZ315],Survival,P. berghei ANKA strain [9]; [12],12.2 days
same,Survival,P. berghei ANKA strain [9]; [13],22 days
same,Activity (%),P. berghei ANKA strain [9]; [14],99.99%
same,Activity (%),"P. berghei ANKA strain [9]; po, 1 mg/kg, 96 h",81%
same,Cures,P. berghei ANKA strain [9]; po,0\5
same,Survival (days) 3 mg/kg SSV po,[2],9.6 days
same,Activity (%) 3 mg/kg SSV po,[2]; [11],92%
same,Survival (days) 10 mg/kg SSV po,[2]; untreated 6-7 days,11.2 days
same,Activity (%) 10 mg/kg SSV po,[2]; [11],99.97%
same,Survival (days) 3 × 10 mg/kg p.o. SSV,P. berghei ANKA strain [10],>30 days
same,Activity (%) 3 × 10 mg/kg p.o. SSV,P. berghei ANKA strain [10]; parasitemia reduction on day 4,100%
